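Compound exposure: 48 hours, 5 concentrations, 96-well plates. TGI: total growth inhibition.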
Assays:
Assay in all cases: DTP human tumour cell line panel, 48 h
OVCAR-3 ovarian = test system: OVCAR-3 ovarian
OVCAR-5 ovarian = test system: OVCAR-5 ovarian
TK-10 renal = test system: TK-10 renal
LOX IMVI melanoma = test system: LOX IMVI melanoma
U251 CNS = test system: U251 CNS
M14 melanoma = test system: M14 melanoma
SNB-75 CNS = test system: SNB-75 CNS
SNB-19 CNS = test system: SNB-19 CNS
SK-MEL-5 melanoma = test system: SK-MEL-5 melanoma
UO-31 renal = test system: UO-31 renal
SK-MEL-2 melanoma = test system: SK-MEL-2 melanoma
IGROV1 ovarian = test system: IGROV1 ovarian
A549 NSCLC = test system: A549 NSCLC
RXF-631 renal = test system: RXF-631 renal
MALME-3M melanoma = test system: MALME-3M melanoma
COLO 205 colon = test system: COLO 205 colon
HOP-18 NSCLC = test system: HOP-18 NSCLC
DMS 273 small cell lung = test system: DMS 273 small cell lung
A498 renal = test system: A498 renal
DMS 114 small cell lung = test system: DMS 114 small cell lung
NCI-H522 lung = test system: NCI-H522 lung
K-562 leukemia = test system: K-562 leukemia
UACC-62 melanoma = test system: UACC-62 melanoma
OVCAR-8 ovarian = test system: OVCAR-8 ovarian
ACHN renal = test system: ACHN renal
SW-620 colon = test system: SW-620 colon
HL-60(TB) leukemia = test system: HL-60(TB) leukemia
CAKI-1 renal = test system: CAKI-1 renal
SNB-78 CNS = test system: SNB-78 CNS
HT29 colon = test system: HT29 colon
OVCAR-4 ovarian = test system: OVCAR-4 ovarian
DLD-1 colon = test system: DLD-1 colon
CCRF-CEM leukemia = test system: CCRF-CEM leukemia
SF-268 CNS = test system: SF-268 CNS
SN12C renal = test system: SN12C renal
HOP-92 NSCLC = test system: HOP-92 NSCLC
M19-MEL melanoma = test system: M19-MEL melanoma
NCI-H460 lung = test system: NCI-H460 lung
EKVX NSCLC = test system: EKVX NSCLC
KM20L2 colon = test system: KM20L2 colon
NCI-H226 lung = test system: NCI-H226 lung
UACC-257 melanoma = test system: UACC-257 melanoma
HCC-2998 colon = test system: HCC-2998 colon
786-0 renal = test system: 786-0 renal
SF-539 CNS = test system: SF-539 CNS
RXF 393 renal = test system: RXF 393 renal
SK-MEL-28 melanoma = test system: SK-MEL-28 melanoma
HCT-116 colon = test system: HCT-116 colon
HCT-15 colon = test system: HCT-15 colon
SR leukemia = test system: SR leukemia
LXFL 529 NSCLC = test system: LXFL 529 NSCLC
MOLT-4 leukemia = test system: MOLT-4 leukemia
RPMI-8226 leukemia = test system: RPMI-8226 leukemia
SF-295 CNS = test system: SF-295 CNS
KM12 colon = test system: KM12 colon
NCI-H23 lung = test system: NCI-H23 lung
HOP-62 NSCLC = test system: HOP-62 NSCLC
SK-OV-3 ovarian = test system: SK-OV-3 ovarian

What does the source list for O=C(NO)C(=O)Nc1cc(Cl)ccc1Cl?
TGI (OVCAR-3 ovarian): > 100 µM; TGI (OVCAR-5 ovarian): > 100 µM; TGI (TK-10 renal): > 100 µM; TGI (LOX IMVI melanoma): > 100 µM; TGI (U251 CNS): > 100 µM; TGI (M14 melanoma): > 100 µM; TGI (SNB-75 CNS): > 100 µM; TGI (SNB-19 CNS): > 100 µM; TGI (SK-MEL-5 melanoma): > 100 µM; TGI (UO-31 renal): 51 µM; TGI (SK-MEL-2 melanoma): > 100 µM; TGI (IGROV1 ovarian): 55.3 µM; TGI (A549 NSCLC): > 100 µM; TGI (RXF-631 renal): > 100 µM; TGI (MALME-3M melanoma): > 100 µM; TGI (COLO 205 colon): > 100 µM; TGI (HOP-18 NSCLC): > 100 µM; TGI (DMS 273 small cell lung): > 100 µM; TGI (A498 renal): > 100 µM; TGI (DMS 114 small cell lung): > 100 µM; TGI (NCI-H522 lung): 49.1 µM; TGI (K-562 leukemia): > 100 µM; TGI (UACC-62 melanoma): > 100 µM; TGI (OVCAR-8 ovarian): > 100 µM; TGI (ACHN renal): > 100 µM; TGI (SW-620 colon): > 100 µM; TGI (HL-60(TB) leukemia): > 100 µM; TGI (CAKI-1 renal): > 100 µM; TGI (SNB-78 CNS): > 100 µM; TGI (HT29 colon): > 100 µM; TGI (OVCAR-4 ovarian): > 100 µM; TGI (DLD-1 colon): > 100 µM; TGI (CCRF-CEM leukemia): > 100 µM; TGI (SF-268 CNS): > 100 µM; TGI (SN12C renal): > 100 µM; TGI (HOP-92 NSCLC): > 100 µM; TGI (M19-MEL melanoma): > 100 µM; TGI (NCI-H460 lung): > 100 µM; TGI (EKVX NSCLC): > 100 µM; TGI (KM20L2 colon): > 100 µM; TGI (NCI-H226 lung): > 100 µM; TGI (UACC-257 melanoma): > 100 µM; TGI (HCC-2998 colon): > 100 µM; TGI (786-0 renal): > 100 µM; TGI (SF-539 CNS): > 100 µM; TGI (RXF 393 renal): > 100 µM; TGI (SK-MEL-28 melanoma): > 100 µM; TGI (HCT-116 colon): > 100 µM; TGI (HCT-15 colon): > 100 µM; TGI (SR leukemia): > 100 µM; TGI (LXFL 529 NSCLC): > 100 µM; TGI (MOLT-4 leukemia): > 100 µM; TGI (RPMI-8226 leukemia): > 100 µM; TGI (SF-295 CNS): > 100 µM; TGI (KM12 colon): > 100 µM; TGI (NCI-H23 lung): > 100 µM; TGI (HOP-62 NSCLC): > 100 µM; TGI (SK-OV-3 ovarian): > 100 µM

Which results are given for O=C1[C@@H]2C(c3cccc([N+](=O)[O-])c3)=NO[C@@H]2C(=O)N1c1ccc(Cc2ccc(N3C(=O)[C@H]4C(c5cccc([N+](=O)[O-])c5)=NO[C@H]4C3=O)cc2)cc1?
TGI (OVCAR-3 ovarian): > 100 µM; TGI (OVCAR-5 ovarian): > 100 µM; TGI (TK-10 renal): > 100 µM; TGI (M14 melanoma): > 100 µM; TGI (SNB-75 CNS): > 100 µM; TGI (UO-31 renal): > 100 µM; TGI (SK-MEL-2 melanoma): > 100 µM; TGI (IGROV1 ovarian): > 100 µM; TGI (RXF-631 renal): > 100 µM; TGI (MALME-3M melanoma): > 100 µM; TGI (COLO 205 colon): > 100 µM; TGI (HOP-18 NSCLC): > 100 µM; TGI (DMS 273 small cell lung): > 100 µM; TGI (DMS 114 small cell lung): > 100 µM; TGI (NCI-H522 lung): > 100 µM; TGI (K-562 leukemia): > 100 µM; TGI (UACC-62 melanoma): > 100 µM; TGI (ACHN renal): > 100 µM; TGI (SW-620 colon): > 100 µM; TGI (CAKI-1 renal): > 100 µM; TGI (SNB-78 CNS): > 100 µM; TGI (HT29 colon): > 100 µM; TGI (OVCAR-4 ovarian): > 100 µM; TGI (DLD-1 colon): > 100 µM; TGI (CCRF-CEM leukemia): > 100 µM; TGI (SN12C renal): > 100 µM; TGI (HOP-92 NSCLC): > 100 µM; TGI (M19-MEL melanoma): > 100 µM; TGI (NCI-H460 lung): > 100 µM; TGI (KM20L2 colon): > 100 µM; TGI (UACC-257 melanoma): > 100 µM; TGI (786-0 renal): > 100 µM; TGI (SF-539 CNS): > 100 µM; TGI (RXF 393 renal): > 100 µM; TGI (SK-MEL-28 melanoma): > 100 µM; TGI (HCT-116 colon): > 100 µM; TGI (HCT-15 colon): > 100 µM; TGI (SR leukemia): > 100 µM; TGI (LXFL 529 NSCLC): > 100 µM; TGI (MOLT-4 leukemia): > 100 µM; TGI (RPMI-8226 leukemia): > 100 µM; TGI (HOP-62 NSCLC): > 100 µM

Which TGI (OVCAR-3 ovarian) does the source give for CCN(C(=N)C#N)c1ccccc1 here?
The TGI was > 100 µM.

What about the TGI (OVCAR-5 ovarian) of the same molecule?
The TGI was > 100 µM.

What about the TGI (TK-10 renal) of the same molecule?
Its TGI is > 100 µM.

And the TGI (LOX IMVI melanoma)?
The TGI was > 100 µM.

And the TGI (U251 CNS)?
The TGI was > 100 µM.

And the TGI (M14 melanoma)?
The TGI was > 100 µM.

What about the TGI (SNB-75 CNS) of the same molecule?
The TGI was > 100 µM.

What about the TGI (SNB-19 CNS) of the same molecule?
Its TGI is > 100 µM.

And the TGI (SK-MEL-5 melanoma)?
The TGI was > 100 µM.

What about the TGI (UO-31 renal) of the same molecule?
Its TGI is > 100 µM.

And the TGI (SK-MEL-2 melanoma)?
Its TGI is > 100 µM.

And the TGI (IGROV1 ovarian)?
Its TGI is > 100 µM.

What about the TGI (A549 NSCLC) of the same molecule?
The TGI was > 100 µM.

And the TGI (RXF-631 renal)?
Its TGI is > 100 µM.

And the TGI (MALME-3M melanoma)?
The TGI was > 100 µM.

What about the TGI (COLO 205 colon) of the same molecule?
Its TGI is > 100 µM.

And the TGI (HOP-18 NSCLC)?
Its TGI is > 100 µM.

And the TGI (DMS 273 small cell lung)?
Its TGI is > 58.3 µM.

What about the TGI (A498 renal) of the same molecule?
The TGI was > 100 µM.

What about the TGI (DMS 114 small cell lung) of the same molecule?
Its TGI is > 88.2 µM.

And the TGI (NCI-H522 lung)?
The TGI was > 100 µM.

And the TGI (K-562 leukemia)?
The TGI was > 100 µM.

And the TGI (UACC-62 melanoma)?
The TGI was > 100 µM.

And the TGI (OVCAR-8 ovarian)?
Its TGI is > 100 µM.

What about the TGI (ACHN renal) of the same molecule?
Its TGI is > 100 µM.

And the TGI (SW-620 colon)?
Its TGI is > 49.8 µM.

And the TGI (HL-60(TB) leukemia)?
The TGI was > 70.2 µM.

What about the TGI (CAKI-1 renal) of the same molecule?
Its TGI is > 100 µM.

And the TGI (HT29 colon)?
The TGI was > 100 µM.

And the TGI (OVCAR-4 ovarian)?
Its TGI is > 100 µM.

What about the TGI (DLD-1 colon) of the same molecule?
Its TGI is > 65.6 µM.

And the TGI (CCRF-CEM leukemia)?
The TGI was > 85.1 µM.

What about the TGI (SF-268 CNS) of the same molecule?
Its TGI is > 100 µM.

What about the TGI (SN12C renal) of the same molecule?
The TGI was > 100 µM.

What about the TGI (HOP-92 NSCLC) of the same molecule?
The TGI was > 100 µM.

What about the TGI (M19-MEL melanoma) of the same molecule?
Its TGI is > 95.4 µM.

And the TGI (NCI-H460 lung)?
The TGI was > 100 µM.

And the TGI (EKVX NSCLC)?
Its TGI is > 100 µM.

And the TGI (KM20L2 colon)?
Its TGI is > 100 µM.

And the TGI (NCI-H226 lung)?
The TGI was > 100 µM.

And the TGI (UACC-257 melanoma)?
Its TGI is > 100 µM.

What about the TGI (HCC-2998 colon) of the same molecule?
Its TGI is > 100 µM.

And the TGI (786-0 renal)?
The TGI was > 60.3 µM.

And the TGI (SF-539 CNS)?
The TGI was 27.6 µM.

And the TGI (RXF 393 renal)?
Its TGI is > 100 µM.

And the TGI (SK-MEL-28 melanoma)?
The TGI was > 100 µM.

And the TGI (HCT-116 colon)?
The TGI was > 100 µM.

And the TGI (HCT-15 colon)?
The TGI was > 69.2 µM.

What about the TGI (SR leukemia) of the same molecule?
The TGI was > 100 µM.

And the TGI (LXFL 529 NSCLC)?
The TGI was > 100 µM.

And the TGI (MOLT-4 leukemia)?
The TGI was > 100 µM.

And the TGI (RPMI-8226 leukemia)?
Its TGI is > 100 µM.

And the TGI (SF-295 CNS)?
The TGI was > 100 µM.

What about the TGI (KM12 colon) of the same molecule?
Its TGI is > 100 µM.

And the TGI (NCI-H23 lung)?
Its TGI is > 100 µM.

What about the TGI (HOP-62 NSCLC) of the same molecule?
Its TGI is > 100 µM.

What about the TGI (SK-OV-3 ovarian) of the same molecule?
Its TGI is > 100 µM.

Source: PubChem BioAssay (NCI)
